Entries after “also recorded” stand apart in the source; their conditions may differ.
What was measured:
GST-PPAR beta/delta LBD [1] = target: T1, GST-PPAR beta/delta LBD (Homo sapiens, UniProt Q03181); assay: Ligand-induced binding of corepressor peptide SMRT-ID2, TR-FRET; assay type: biochemical; conditions: concentration dependent
T1 construct: GST-PPAR beta/delta LBD (GST=glutathione S-transferase); purchased Invitrogen, Darmstadt, Germany
T1 sequence (Q03181 211-439 limits assumed): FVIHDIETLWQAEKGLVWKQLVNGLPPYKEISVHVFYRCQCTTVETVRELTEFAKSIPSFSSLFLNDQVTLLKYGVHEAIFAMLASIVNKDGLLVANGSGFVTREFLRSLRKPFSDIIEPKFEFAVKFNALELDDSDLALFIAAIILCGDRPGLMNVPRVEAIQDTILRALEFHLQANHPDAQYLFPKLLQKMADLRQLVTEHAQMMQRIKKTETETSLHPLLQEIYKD
Method: FIG. 2: Induction of corepressor peptide binding to GST-PPAR beta/delta ligand binding domain (LBD) in vitro in dependency of the concentration of the substances of this invention comparative compound (CC) 2, compound 1 (A), compound 2 (B), compound 3 (C), compound 4 (D) and compound 5 (E). The interaction of fluorescein-labeled SMRT-ID2 peptide with recombinant GST-PPAR beta/delta LBD bound to a terbium-labeled anti-GST antibody is determined by TR-FRET analysis. Shown is the ratio of fluorescence intensity at 520 nm (fluorescein emission, excited by terbium emission) and 495 nm (terbium emission). All data points represent average values of triplicates (+/−standard deviation).
B) The ligand-induced binding of the commercially available fluorescein-labeled corepressor peptide SMRT-ID2 ([…]) (Invitrogen, Darmstadt, Germany) to GST-PPAR beta/delta is for example measured by TR-FRET analysis using a terbium-labeled anti-GST antibody in a VICTOR3V Multilabel Counter (WALLAC 1420; PerkinElmer Life and Analytical Sciences, Rodgau, Germany). The measurement is performed in a buffer composed of 100 mM KC, 20 mM Tris pH 7.9, 0.01% Triton X100 and 1 μg/μL bovine serum albumin.

GST-PPAR beta/delta LBD [2] = target: T1, GST-PPAR beta/delta LBD; assay: Competitive in vitro ligand binding, TR-FRET, displacement of Fluormone Pan-PPAR-Green; conditions: fluorescence ratio 520 nm/495 nm
Method: FIG. 1: Competitive in vitro ligand binding to PPAR beta/delta. • The displacement of ligand Fluormone® Pan-PPAR Green from recombinant GST-PPAR beta/delta ligand binding domain (LBD) by the substances of the present invention comparative compound (CC) 2, compound 1 (A), compound 2 (B), and compound 3 (C), compound 4 (D), compound 5 (E) is determined by TR-FRET analysis. Shown is the ratio of fluorescence intensity at 520 nm (fluorescein emission, excited by terbium emission) and 495 nm (terbium emission). All data points represent average values of triplicates (+/−standard deviation).
A) Competitive ligand-binding of the substances of this invention was measured in vitro using time-resolved fluorescence resonance energy transfer (TR-FRET) by competition with the commercially available fluorescent Fluormone® Pan-PPAR-Green for binding to the fusion protein GST-PPAR beta/delta LBD (GST=glutathione S-transferase; LBD=ligand binding domain) (Invitrogen, Darmstadt, Germany) in a VICTOR3V Multilabel Counter (WALLAC 1420; PerkinElmer Life and Analytical Sciences, Rodgau, Germany). The measurement was performed in 100 mM KC, 20 mM Tris pH 7.9, 0.01% Triton X100 and 1 μg/μL bovine serum albumin. GST is known to the expert in the field as suitable fusion partner for proteins. For this purpose, the ratio of fluorescence intensities at 520 nm (fluorescein emission excited by terbium emission) and at 495 nm (terbium emission) is determined.

PPAR beta/delta = target: T2, PPAR beta/delta (Homo sapiens, UniProt Q03181); assay: Agonist-induced transcriptional activity, luciferase reporter in WPMY-1 cells; assay type: cell-based; conditions: human WPMY-1 myofibroblasts, 500 nM substance, 500 nM agonist L165041
T2 construct: expressed in transfected cells; host or cells: WPMY-1 human myofibroblasts, transient transfection with PEI
T2 sequence (Q03181 1-441): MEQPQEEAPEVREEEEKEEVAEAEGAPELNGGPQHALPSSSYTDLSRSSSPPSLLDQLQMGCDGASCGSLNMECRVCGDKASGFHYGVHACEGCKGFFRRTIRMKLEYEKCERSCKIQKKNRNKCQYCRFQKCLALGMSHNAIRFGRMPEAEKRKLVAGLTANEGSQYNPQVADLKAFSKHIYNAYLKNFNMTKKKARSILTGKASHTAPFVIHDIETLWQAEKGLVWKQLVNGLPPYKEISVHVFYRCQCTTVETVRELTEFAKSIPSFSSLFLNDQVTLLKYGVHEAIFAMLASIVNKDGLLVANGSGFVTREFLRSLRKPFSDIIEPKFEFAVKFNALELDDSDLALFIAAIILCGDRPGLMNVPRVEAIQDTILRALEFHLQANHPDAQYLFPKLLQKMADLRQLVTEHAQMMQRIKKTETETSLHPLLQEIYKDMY
Method: FIG. 4: Effect of the substances of this invention comparative compound (CC) 2, compound 1, compound 5, compound 2 and compound 3 on the agonist-induced transcriptional activity of PPAR subtypes alpha (A), beta/delta (B) and gamma (C). • WPMY-1 cells are transiently transfected with a luciferase reporter plasmid. Four hours after transfection, cells are treated for 48 hours with the respective antagonist (500 nM), followed by a treatment with 300 nM of PPAR alpha agonist GW7647 (A), 500 nM of PPAR beta/delta agonist L165041 (B) or 300 nM of PPAR gamma agonist GW1929 (C). The relative induction is represented by the luciferase activity of the agonist-treated transfected cells in relation to solvent-treated transfected cells. Asterisks (**, *) indicate significant differences to untreated cells (after t-test; **: p<0.01; *: p<0.05). GW7647 is commercially available from Sigma-Aldrich (Steinheim, Germany). L165041 and GW1929 can be obtained from Biozol (Eching, Germany).
D) The influence of substances of this invention on the agonist-induced transcriptional activity of PPAR subtypes alpha, beta/delta or gamma is determined in WPMY-1 myofibroblasts transfected transiently with a luciferase reporter plasmid (LexA system) using polyethyleneimine (PEI) according to a method known to the expert. As agonists, substances GW7647 for PPAR alpha or L165041 for PPAR beta/delta or GW1929 for PPAR gamma known to the expert are used. WPMY-1 myofibroblast cells are initially cultured for example in a 12-well plate in DMEM medium (DMEM: Dulbecco's Modified Eagle Medium) according to a method known to the expert and to a confluence of 70% to 80%, and subsequently transfected with 2.5 μg of plasmid-DNA containing the luciferase reporter plasmid, expression plasmids for the respective PPAR subtypes and the Renilla-luciferase plasmid pRL-SV40 (Promega, Mannheim, Germany), and 2.5 μl PEI (1:1000 dilution, pH 7). Four hours after transfection, the cells are treated for 48 hours with 500 nM of the substances of this invention, and 24 later with 300 nM (GW7647 or GW1929, respectively) or 500 nM (L165041) of the respective agonist at 37° C. and 5% CO2 in an incubator. The luciferase assay is performed 48 hours after the first treatment according to the commercial method of the “dual-well-system” (pjk GmbH, Kleinblittersdorf, Germany), whereby for a normalization, not only the luciferase-, but also the Renilla activity is measured. Cells are initially lysed for this measurement, and 20 μl of the lysate is transferred into a white 96-well plate (Fisher Scientific, Hamburg, Germany). […] Mean values and standard deviation are calculated from values of three independent measurements.

ANGPTL4 gene expression = ANGPTL4 gene expression (qPCR) in WPMY-1 myofibroblasts; assay type: cell-based, human; conditions: WPMY-1, 1 μM, 24 hours, compared to DMSO-treated cells
Method: FIG. 5: Influence of the substances of this invention comparative compound (CC) 2, compound 1, compound 5, compound 2 and compound 3 on ANGPTL4 gene expression. • (A) Comparison of relative ANGPTL4 expression, (B) mean inhibitory concentration of substances of this invention. (A) Human myofibroblasts (WPMY-1) are treated for 24 hours with the substances of this invention (1 μM), then RNA is isolated, the cDNA synthesized and analyzed by qPCR, normalized to L27 gene expression. (B) Titration of the effect of substances of this invention on the endogenous ANGPTL4 expression in WPMY-1 cells (left) or peritoneal mouse macrophages (right) after cells have been treated for six hours with the substances of this invention compound 1 and compound 2, respectively; RNA isolation, cDNA synthesis and qPCR as described for (A). The relative expression is calculated in relation to DMSO-treated cells. All values are average values of triplicates (+1-standard deviation). Asterisks (***, **, *) indicate significant differences to DMSO-treated cells (***: p<0.001 after t-test; *: p <0.05).
The influence of substances of this invention on PPAR-beta/delta regulated genes like for example ANGPTL4 which codes for the angiopoietin-like protein ANGPTL4 is assessed in different cells with a confluence of 70% to 80% in a 6-well cell culture plate. For this purpose, cultivated human myofibroblasts (WPMY-1), peritoneal mouse macrophages or cells of the human breast cancer cell line MDA-MB-231 are treated for 24 hours with 1 μM of the substances of this invention. Cells of the breast cancer cell line are in addition stimulated for 6 hours with TGF-beta2 (2 ng/ml) which is commercially available. Subsequently, RNA is isolated from the cells by procedures known to the expert and analyzed by quantitative PCR (qPCR, real time qPCR, RT-qPCR) also known to those skilled in the art. […]

| SMILES | induction of interaction of PPAR beta/delta LBD with corepressor peptide SMRT-ID2 (GST-PPAR beta/delta LBD [1]) | competition with Fluormone Pan-PPAR-Green for binding to GST-PPAR beta/delta LBD (GST-PPAR beta/delta LBD [2]) | agonist-induced transcriptional activity of PPAR beta/delta (luciferase induction) (PPAR beta/delta) | reduction of relative expression of the ANGPTL4 gene (ANGPTL4 gene expression) |
| --- | --- | --- | --- | --- |
| COC(=O)c1sccc1S(=O)(=O)Nc1ccc(NCc2ccccc2)cc1OC [compound 4, methyl 3-(N-(4-(benzylamino)-2-methoxyphenyl)sulfamoyl)thiophene-2-carboxylate] | clearly demonstrate the interaction; also recorded: induce | significant competition efficacy; also recorded: significant competition efficiency |  |  |
| COC(=O)c1sccc1S(=O)(=O)Nc1ccc(NCCC(C)C)cc1OC [compound 3, methyl 3-(N-(4-(isopentylamino)-2-methoxyphenyl)sulfamoyl)thiophene-2-carboxylate] | clearly demonstrate the interaction; also recorded: induce | significant competition efficacy; also recorded: significant competition efficiency | inhibited in a PPAR subtype-specific manner |  |
| COC(=O)c1sccc1S(=O)(=O)Nc1ccc(N2CCOCC2)cc1OC [comparison compound 2, methyl 3-(N-(2-methoxy-4-morpholinophenyl)sulfamoyl)thiophene-2-carboxylate, reference compound] |  |  |  | up to 10% |

— US20150018411A1, “COMPOUNDS AS PPAR BETA/DELTA INHIBITORS FOR TREATING PPAR BETA/DELTA-MEDIATED DISEASES” (PHILIPPS-UNIVERSITAT MARBURG, priority 2011, published 2015)
